Source: publication PMC10856196 (Molecules, 2024)

Columns and labels:
[1] = target: T1, human MOP receptor (Opioid Receptor Mu 1) (Homo sapiens, UniProt P35372); assay: Tango β-arrestin recruitment in U2OS cells, antagonist mode against DAMGO EC80; reference antagonist; format: cell-based
T1 construct: gene OPRM1; human MOP receptor with linked TEV protease site (Tango OPRM1-bla U2OS)

[2] = target: T1, human MOP receptor (Opioid Receptor Mu 1); assay: Tango β-arrestin recruitment in U2OS cells, antagonist mode against DAMGO EC80, two concentrations only; format: cell-based; settings: read-out: % Emax at 10 μM (relative to β-funaltrexamine)

T1 sequence (P35372 whole entry): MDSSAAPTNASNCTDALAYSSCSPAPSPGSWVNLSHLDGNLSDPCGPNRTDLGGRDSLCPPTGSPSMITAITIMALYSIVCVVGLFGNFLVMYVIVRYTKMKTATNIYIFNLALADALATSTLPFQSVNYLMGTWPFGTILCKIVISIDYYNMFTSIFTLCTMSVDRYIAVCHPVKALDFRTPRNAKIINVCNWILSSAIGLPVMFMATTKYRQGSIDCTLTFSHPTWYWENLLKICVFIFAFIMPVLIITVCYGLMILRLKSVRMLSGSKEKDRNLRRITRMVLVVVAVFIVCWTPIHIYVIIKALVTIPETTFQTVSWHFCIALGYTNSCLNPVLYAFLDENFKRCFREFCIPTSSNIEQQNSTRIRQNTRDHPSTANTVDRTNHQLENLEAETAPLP

Structure (SMILES)	Emax at 10 µM [1] [%]	Emax at 10 µM [2] [%]
COC(=O)/C=C/C(=O)N[C@@H]1CC[C@@]2(O)[C@H]3Cc4ccc(O)c5c4[C@@]2(CCN3CC2CC2)[C@H]1O5 [β-Funaltrexamine]	100	–
Cc1ccc(N2CCN=C2NC(=O)NC(C)CCc2ccc(F)cc2)cc1 (centres unmarked) [7i, 1-[1-(4-methylphenyl)imidazolin-2-yl]-3-[4-(4-fluorophenyl)but-2-yl]urea]	–	48
